According to ChEMBL document CHEMBL1201862, “PubChem BioAssay data set” (2004):
Active and inactive are the calls of the source.

Key:
Cysteine protease ATG4B = biological target: T1, Cysteine protease ATG4B (Homo sapiens, UniProt Q9Y4P1); type: functional;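 also: Fluorescence-based dose-response confirmation assay measuring inhibition of ATG4B activity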
T1 sequence (Q9Y4P1 whole entry): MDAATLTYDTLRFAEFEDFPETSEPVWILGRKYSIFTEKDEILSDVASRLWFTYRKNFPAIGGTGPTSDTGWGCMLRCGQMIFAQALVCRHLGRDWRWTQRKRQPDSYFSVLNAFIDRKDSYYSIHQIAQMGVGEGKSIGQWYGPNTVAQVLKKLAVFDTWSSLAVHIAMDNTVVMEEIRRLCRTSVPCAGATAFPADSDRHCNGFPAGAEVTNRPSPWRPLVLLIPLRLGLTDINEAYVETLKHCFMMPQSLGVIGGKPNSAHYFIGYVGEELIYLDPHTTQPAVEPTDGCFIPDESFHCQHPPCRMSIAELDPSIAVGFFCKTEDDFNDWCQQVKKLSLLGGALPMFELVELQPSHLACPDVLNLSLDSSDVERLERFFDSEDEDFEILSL

Phospholipase A2 = Phospholipase A2 (Homo sapiens, UniProt P04054); type: functional;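 also: confirmatory dose-response counterscreen on phospholipase A2, testing hits that came from an ultra-high-throughput screen for ATG4B inhibitors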
[1] = biological target: Aryl hydrocarbon receptor (Homo sapiens, UniProt P35869); settings: Potency;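 also: confirmatory quantitative high-throughput screen measuring activation of the AhR signaling pathway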
Cytochrome P450 2C19 = Cytochrome P450 2C19 (Homo sapiens, UniProt P33261); test: Cytochrome panel assay with activity outcomes. Panel member name: p450-cyp2c19 Compounds with AC50 equal or less than 10 uM are considered active; type: functional; settings: read-out: AC50
HeLa = test: HeLa cell cytotoxicity, dose response, cytotoxicity control for MITF activator project, CellTiter-Glo luminescence, cherry-pick samples (AID 540259); type: functional, cell-based; settings: Homo sapiens
Interleukin-8 [2] = biological target: T2, Interleukin-8 (Homo sapiens, UniProt P10145); test: Dose Response confirmation of uHTS small molecule hits for cystic fibrosis induced NFkb Inhibitors in a TNFa-induced IL8 counterscreen.; type: functional; settings: read-out: IC50_Mean
T2 sequence (P10145 whole entry): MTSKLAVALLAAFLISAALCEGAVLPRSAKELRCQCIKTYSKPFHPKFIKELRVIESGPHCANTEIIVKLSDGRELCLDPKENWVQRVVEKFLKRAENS

Interleukin-8 [3] = biological target: T2, Interleukin-8; test: Dose Response confirmation of uHTS small molecule hits for cystic fibrosis induced NFkb Inhibitors in a PAF-induced IL8 counterscreen.; type: functional; settings: read-out: IC50_Mean
[4] = biological target: Dual specificity tyrosine-phosphorylation-regulated kinase 1A (Rattus norvegicus, UniProt Q63470); type: biochemical, Homo sapiens
[5] = biological target: Protein disulfide-isomerase (Homo sapiens, UniProt P07237); test: PDI inhibitors, insulin aggregation turbidity, dose response, biochemical, absorbance, cherry-picked samples (AID 602350); type: functional
CHO = test: cytotoxicity in TLR9-MyD88 CHO cells, dose response, cytotoxicity control for TLR9-MyD88 binding inhibitor project, cell-based, luminescence (AID 588339); type: functional, hamster; settings: Cricetulus griseus;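 also: CHO cells stably coexpressing TLR9 and MyD88 fusions from primary screen; compound exposure lasted 48 hours before viability readout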
Beta Lactamase = Beta Lactamase (Pseudomonas aeruginosa, UniProt Q932Y6); test: beta-lactamase reporter inhibitor potency, dose response, artefact control for TLR9-MyD88 binding inhibitor project, BLA reporter cells, FRET fluorescence (AID 588341); type: cell-based;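 also: cell based assay in CHO-K1 cells stably expressing beta-lactamase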
[6] = biological target: Diacylglycerol lipase-beta (Mus musculus, UniProt Q91WC9); test: Late stage assay provider results from the probe development effort to identify inhibitors of diacylglycerol lipase, beta (DAGLb): fluorescence-based dose-response biochemical gel-based competitive Activity-Based Protein Profiling (ABPP) inhibition of DAGLb in vitro.; type: functional
[7] = NIH-3T3 fibroblast cytotoxicity, dose response, cytotoxicity control, cell-based, fluorescence, Alamar Blue, secondary assay (AID 2327); type: functional;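 also: NIH-3T3 mouse fibroblasts cultured with fluconazole at 8 µg/mL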
[8] = biological target: T3, RNA-binding protein pos-1 (Caenorhabditis elegans, UniProt G5EF15); test: inhibitors of POS-1/mex-3 RNA binding, dose response, biochemical, fluorescence polarization (AID 1964);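 also: purified POS-1 fused to maltose binding protein made in E. coli; potency of compounds blocking POS-1 binding to fluorescent RNA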
T3 sequence (G5EF15 whole entry): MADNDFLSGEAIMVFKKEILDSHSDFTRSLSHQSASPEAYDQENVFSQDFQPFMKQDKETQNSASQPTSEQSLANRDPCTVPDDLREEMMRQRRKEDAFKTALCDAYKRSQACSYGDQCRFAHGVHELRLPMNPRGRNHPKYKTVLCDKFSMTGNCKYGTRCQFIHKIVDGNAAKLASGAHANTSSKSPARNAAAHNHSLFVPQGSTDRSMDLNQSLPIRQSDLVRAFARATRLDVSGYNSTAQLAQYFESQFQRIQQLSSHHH

[9] = system: Streptococcus sp. 'group A'; test: growth inhibition of control SK(-) GAS strain, dose response, counter-screen for streptokinase expression inhibitor project, luminescence, kanamycin, BacTiterGlo, confirmation (AID 1900); type: functional, organism-based
cells [10] = type: functional, cell-based
[11] = C. albicans growth with fluconazole, confirmation, fluorescence, retest (AID 2467); type: functional, cell-based
[12] = inhibitors of intracellular T. cruzi replication, confirmation, NIH3T3 host cells, beta-gal luminescence (AID 2044); type: functional, cell-based;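 also: intracellular parasites grown in NIH/3T3 mouse fibroblasts as host cells; luminescent beta-galactosidase reporter signal from transgenic T. cruzi replicating inside host cells; inhibitors lower the luminescence signal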
cells [13] = type: functional, cell-based; remark: listed apart in the source
[14] = cytotoxicity toward NIH3T3 fibroblasts, dose response, counter-screen, cell-based, ATP luminescence, mouse fibroblasts (AID 2010); type: functional;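 also: cells exposed to compound for about 90 hours before reading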
Streptococcus = test: Group A Streptococcus viability loss, dose response, counter-screen for streptokinase expression inhibitor project, luminescence, BacTiterGlo (AID 1915); type: functional, organism-based;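 also: potency for reduction of bacterial viability or growth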
[15] = cytotoxicity in HEK-293T cells, dose response, cytotoxicity control for TCR NF-kB inhibitor project, luminescence, T-cell screen hits (AID 489026); type: functional, cell-based;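 also: cells exposed to compound about 14 hours before the viability readout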
[16] = biological target: Heat shock protein HSP 90-alpha (Homo sapiens, UniProt P07900); type: functional, organism-based
Insulin-degrading enzyme [17] = biological target: T4, Insulin-degrading enzyme (Homo sapiens, UniProt P14735); test: activators of recombinant IDE enzyme, dose response, counter-screen for IDE activator project, biochemical, fluorescence polarization (AID 588681)
T4 sequence (P14735 whole entry): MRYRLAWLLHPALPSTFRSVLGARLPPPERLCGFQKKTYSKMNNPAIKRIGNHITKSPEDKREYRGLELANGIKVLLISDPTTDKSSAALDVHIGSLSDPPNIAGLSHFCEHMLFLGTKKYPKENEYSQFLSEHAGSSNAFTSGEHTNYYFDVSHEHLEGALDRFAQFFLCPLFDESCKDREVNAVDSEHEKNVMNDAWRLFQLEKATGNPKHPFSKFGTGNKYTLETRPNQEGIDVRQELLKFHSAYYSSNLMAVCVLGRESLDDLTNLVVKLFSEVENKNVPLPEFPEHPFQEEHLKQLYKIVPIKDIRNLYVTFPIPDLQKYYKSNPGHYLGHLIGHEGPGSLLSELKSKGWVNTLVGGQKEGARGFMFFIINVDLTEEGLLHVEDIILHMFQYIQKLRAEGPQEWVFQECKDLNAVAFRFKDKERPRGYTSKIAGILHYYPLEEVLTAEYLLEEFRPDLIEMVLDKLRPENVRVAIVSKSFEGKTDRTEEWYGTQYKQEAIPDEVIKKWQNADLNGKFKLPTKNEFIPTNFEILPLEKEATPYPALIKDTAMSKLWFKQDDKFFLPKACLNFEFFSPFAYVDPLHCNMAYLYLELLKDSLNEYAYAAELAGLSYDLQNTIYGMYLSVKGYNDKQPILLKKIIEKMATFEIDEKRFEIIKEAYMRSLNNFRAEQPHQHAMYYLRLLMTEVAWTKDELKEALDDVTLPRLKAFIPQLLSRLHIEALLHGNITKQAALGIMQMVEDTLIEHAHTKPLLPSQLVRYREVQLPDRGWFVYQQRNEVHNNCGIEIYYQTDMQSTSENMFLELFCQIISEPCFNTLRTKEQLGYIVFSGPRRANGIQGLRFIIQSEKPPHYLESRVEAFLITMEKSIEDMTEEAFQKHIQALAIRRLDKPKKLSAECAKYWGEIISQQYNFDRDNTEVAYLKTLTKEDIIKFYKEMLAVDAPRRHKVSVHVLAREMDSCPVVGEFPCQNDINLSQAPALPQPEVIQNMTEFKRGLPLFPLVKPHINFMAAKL

Insulin-degrading enzyme [18] = biological target: T4, Insulin-degrading enzyme; test: activators of endogenous IDE in HEK cells, dose response, cell-based, fluorescence polarization (AID 588439); type: functional
HEK293 [19] = test: HEK cell cytotoxicity by LDH release, dose response, cytotoxicity control for IDE activator project, fluorescence, HEK cells (AID 588440); type: functional, cell-based; settings: Homo sapiens;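 also: cytotoxicity by LDH release measuring loss of membrane integrity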
HEK293 [20] = test: optical interference in Abeta FP readout, dose response, artefact control for IDE activator project, biochemical, fluorescence polarization (AID 588442); type: functional, cell-based; settings: Homo sapiens
[21] = biological target: Voltage-gated inwardly rectifying potassium channel KCNH2 (Homo sapiens, UniProt Q12809); settings: Potency;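 also: confirmatory quantitative high-throughput screen measuring inhibition of hERG channel activity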
Sequence of Voltage-gated inwardly rectifying potassium channel KCNH2 (Q12809 whole entry): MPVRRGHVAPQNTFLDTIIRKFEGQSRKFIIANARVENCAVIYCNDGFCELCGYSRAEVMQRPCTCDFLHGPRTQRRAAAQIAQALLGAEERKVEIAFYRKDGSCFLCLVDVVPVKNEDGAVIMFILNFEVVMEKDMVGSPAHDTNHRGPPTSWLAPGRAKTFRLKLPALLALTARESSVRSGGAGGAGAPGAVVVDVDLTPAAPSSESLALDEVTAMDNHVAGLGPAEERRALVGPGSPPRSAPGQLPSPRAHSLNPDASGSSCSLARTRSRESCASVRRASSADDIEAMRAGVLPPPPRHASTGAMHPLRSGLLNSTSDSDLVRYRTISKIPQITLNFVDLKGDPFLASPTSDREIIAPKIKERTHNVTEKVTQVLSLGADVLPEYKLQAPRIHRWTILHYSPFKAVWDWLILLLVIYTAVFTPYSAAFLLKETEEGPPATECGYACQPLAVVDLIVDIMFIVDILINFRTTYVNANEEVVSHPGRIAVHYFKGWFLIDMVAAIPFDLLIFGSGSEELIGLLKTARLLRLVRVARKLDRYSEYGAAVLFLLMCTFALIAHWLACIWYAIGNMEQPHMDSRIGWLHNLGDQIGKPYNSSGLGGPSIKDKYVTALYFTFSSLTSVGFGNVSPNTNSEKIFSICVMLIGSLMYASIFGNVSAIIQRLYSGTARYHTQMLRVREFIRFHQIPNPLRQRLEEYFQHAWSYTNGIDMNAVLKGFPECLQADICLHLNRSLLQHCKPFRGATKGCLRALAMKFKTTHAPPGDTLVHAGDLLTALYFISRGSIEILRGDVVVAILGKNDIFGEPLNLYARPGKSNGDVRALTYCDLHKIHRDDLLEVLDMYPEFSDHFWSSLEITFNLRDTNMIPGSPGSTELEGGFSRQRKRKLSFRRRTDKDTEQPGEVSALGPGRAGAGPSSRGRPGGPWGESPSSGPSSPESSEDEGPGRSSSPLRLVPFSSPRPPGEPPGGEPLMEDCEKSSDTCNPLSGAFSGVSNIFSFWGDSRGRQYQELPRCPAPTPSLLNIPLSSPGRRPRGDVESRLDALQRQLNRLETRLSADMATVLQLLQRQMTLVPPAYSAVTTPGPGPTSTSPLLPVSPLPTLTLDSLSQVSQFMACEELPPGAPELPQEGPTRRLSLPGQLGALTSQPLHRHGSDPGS

Sequence of Cytochrome P450 2C19 (P33261 whole entry): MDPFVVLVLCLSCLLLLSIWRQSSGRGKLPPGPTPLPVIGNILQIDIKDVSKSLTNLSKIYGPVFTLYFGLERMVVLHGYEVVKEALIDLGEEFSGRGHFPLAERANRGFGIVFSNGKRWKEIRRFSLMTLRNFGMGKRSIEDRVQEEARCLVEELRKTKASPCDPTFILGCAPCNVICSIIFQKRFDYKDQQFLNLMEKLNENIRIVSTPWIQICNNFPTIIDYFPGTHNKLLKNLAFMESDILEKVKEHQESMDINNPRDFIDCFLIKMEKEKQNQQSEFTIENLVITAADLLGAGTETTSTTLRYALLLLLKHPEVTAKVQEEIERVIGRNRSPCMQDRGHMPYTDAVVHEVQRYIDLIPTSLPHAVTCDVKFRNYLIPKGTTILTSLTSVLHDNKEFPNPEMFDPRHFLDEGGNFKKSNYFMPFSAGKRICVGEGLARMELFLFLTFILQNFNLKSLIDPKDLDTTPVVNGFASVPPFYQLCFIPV
Sequence of Protein disulfide-isomerase (P07237 whole entry, the tested form may be a part): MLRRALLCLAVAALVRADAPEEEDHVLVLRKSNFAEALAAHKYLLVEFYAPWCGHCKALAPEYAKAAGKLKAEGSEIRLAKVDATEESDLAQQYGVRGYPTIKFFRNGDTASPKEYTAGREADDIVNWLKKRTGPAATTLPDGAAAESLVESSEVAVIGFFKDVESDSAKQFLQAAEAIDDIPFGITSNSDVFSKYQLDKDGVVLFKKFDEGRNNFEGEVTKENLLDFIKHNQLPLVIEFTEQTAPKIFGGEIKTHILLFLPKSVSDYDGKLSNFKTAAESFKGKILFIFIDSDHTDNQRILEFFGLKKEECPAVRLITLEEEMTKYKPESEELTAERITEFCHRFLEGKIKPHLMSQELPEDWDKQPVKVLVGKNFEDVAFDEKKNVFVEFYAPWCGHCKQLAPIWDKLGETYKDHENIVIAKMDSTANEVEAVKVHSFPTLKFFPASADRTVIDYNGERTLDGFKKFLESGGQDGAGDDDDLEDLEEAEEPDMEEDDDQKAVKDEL
Sequence of Aryl hydrocarbon receptor (P35869 whole entry): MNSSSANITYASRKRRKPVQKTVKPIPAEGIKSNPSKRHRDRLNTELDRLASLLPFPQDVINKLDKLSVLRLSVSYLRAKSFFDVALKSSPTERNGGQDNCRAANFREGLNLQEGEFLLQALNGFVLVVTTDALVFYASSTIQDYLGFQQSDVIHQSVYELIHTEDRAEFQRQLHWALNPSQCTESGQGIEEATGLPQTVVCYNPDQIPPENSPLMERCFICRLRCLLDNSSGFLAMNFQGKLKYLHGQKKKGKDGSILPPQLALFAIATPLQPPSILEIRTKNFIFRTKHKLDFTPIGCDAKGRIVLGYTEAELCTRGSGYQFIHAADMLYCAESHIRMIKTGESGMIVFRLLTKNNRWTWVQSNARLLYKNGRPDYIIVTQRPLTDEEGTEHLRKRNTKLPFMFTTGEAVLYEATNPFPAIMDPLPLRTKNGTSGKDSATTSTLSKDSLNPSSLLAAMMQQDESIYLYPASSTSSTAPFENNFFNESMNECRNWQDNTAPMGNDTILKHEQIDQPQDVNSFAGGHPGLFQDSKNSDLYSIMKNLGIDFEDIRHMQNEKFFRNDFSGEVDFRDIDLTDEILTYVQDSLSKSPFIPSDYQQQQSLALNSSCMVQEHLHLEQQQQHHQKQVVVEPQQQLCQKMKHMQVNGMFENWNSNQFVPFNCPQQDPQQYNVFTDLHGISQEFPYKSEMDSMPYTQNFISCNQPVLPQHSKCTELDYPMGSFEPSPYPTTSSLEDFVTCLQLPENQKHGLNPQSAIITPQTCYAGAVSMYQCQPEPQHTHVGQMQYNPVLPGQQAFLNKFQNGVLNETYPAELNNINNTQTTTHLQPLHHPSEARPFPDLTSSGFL
Sequence of Diacylglycerol lipase-beta (Q91WC9 whole entry): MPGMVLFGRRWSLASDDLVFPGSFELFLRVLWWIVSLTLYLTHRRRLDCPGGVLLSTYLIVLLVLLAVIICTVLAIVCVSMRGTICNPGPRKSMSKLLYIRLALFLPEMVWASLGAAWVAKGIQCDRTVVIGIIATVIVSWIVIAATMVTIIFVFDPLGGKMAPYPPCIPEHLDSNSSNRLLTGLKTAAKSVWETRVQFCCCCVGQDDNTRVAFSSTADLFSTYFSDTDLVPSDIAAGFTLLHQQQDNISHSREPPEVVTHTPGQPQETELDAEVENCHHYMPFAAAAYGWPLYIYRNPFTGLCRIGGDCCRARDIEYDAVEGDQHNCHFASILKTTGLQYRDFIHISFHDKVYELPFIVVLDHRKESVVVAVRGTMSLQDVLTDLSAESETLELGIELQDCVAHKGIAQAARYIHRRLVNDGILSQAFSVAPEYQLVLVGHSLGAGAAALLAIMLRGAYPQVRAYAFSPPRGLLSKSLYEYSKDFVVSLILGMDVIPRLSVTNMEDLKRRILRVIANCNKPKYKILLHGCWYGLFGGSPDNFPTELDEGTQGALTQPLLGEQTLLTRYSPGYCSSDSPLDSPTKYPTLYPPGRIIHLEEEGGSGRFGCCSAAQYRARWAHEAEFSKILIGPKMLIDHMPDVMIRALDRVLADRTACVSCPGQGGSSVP
Sequence of Beta Lactamase (Q932Y6 whole entry): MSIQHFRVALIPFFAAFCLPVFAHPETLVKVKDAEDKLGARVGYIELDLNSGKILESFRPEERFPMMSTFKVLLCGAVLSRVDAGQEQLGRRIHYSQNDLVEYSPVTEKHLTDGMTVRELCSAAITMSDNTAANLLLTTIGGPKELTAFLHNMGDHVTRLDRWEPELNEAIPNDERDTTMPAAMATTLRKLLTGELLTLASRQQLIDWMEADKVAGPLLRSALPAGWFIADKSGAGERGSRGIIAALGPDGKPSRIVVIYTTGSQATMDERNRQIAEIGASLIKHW
Sequence of Phospholipase A2 (P04054 whole entry): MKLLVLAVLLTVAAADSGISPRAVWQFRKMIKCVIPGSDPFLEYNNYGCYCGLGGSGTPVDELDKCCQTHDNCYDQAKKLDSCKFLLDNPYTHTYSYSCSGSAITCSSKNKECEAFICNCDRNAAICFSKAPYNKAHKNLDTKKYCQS

For `CC1(C)C2CCC1(C)C1(C2)NC(=O)c2ccccc2O1` (stereo not drawn), the IC50 (Cysteine protease ATG4B) was 14.8 µM (active) and the IC50 (Phospholipase A2) was 11 µM (active).

With `CCCCOCC1CO1` (stereo not drawn) the AC50 [1] was 56.2 µM (inconclusive).

In the case of `O=C(Nc1cccc2[nH]ncc12)c1ccc(F)cc1`, the AC50 (Cytochrome P450 2C19) is reported as 14.1 µM (inconclusive), the AC50 (HeLa) is reported as 52.8 µM (active) and the IC50 (Interleukin-8 [2]) is reported as > 79 µM (inactive). For the same compound, the IC50 (Interleukin-8 [3]) was 13.8 µM (inactive).

For `NC1=NC(=O)/C(=C\c2ccc(-c3ccc(Cl)cc3)o2)S1`, the AC50 [4] was 0.195 µM (active).

For `C[C@@H]1O[C@@H](Oc2c(-c3ccc(O)c(O)c3)oc3cc(O)cc(O)c3c2=O)[C@H](O)[C@H](O)[C@H]1O`, the AC50 [5] was 5.59 µM (active).

With `O=[N+]([O-])c1ccc(-c2ccc(/C=N/Nc3nc(NCc4ccccc4)nc(N4CCOCC4)n3)o2)cc1` the IC50 (CHO) was 15.9 µM (inactive) and the IC50 (Beta Lactamase) was 4.69 µM (active).

With `O=C(N1CCCCC1Cc1ccccc1)n1cc(-c2ccc(-c3ccccc3C(F)(F)F)cc2)nn1` (stereo not drawn) the IC50 [6] was 0.058 µM (active).

For `O=C(N/N=C\c1c(O)ccc2ccccc12)c1cncc(Br)c1`, the EC50 [7] was 8.52 µM (inconclusive), the EC50 [8] was > 300 µM (not active) and the EC50 [9] was 1.4 µM (active). The EC50 (cells [10]) was 10.3 µM (active), the EC50 [11] was 0.342 µM (active) and the EC50 [12] was 0.792 µM (active). For the same compound, the EC50 (cells [13]) was 86.8 µM (active), the EC50 [14] was 7.07 µM (active) and the EC50 (Streptococcus) was 3.59 µM (active). The IC50 [15] was > 80 µM (inactive), the AC50 [16] was 4.06 µM (active) and the EC50 (Insulin-degrading enzyme [17]) was > 54.7 µM (inactive). The EC50 (Insulin-degrading enzyme [18]) was > 54.7 µM (inactive), the IC50 (HEK293 [19]) was > 89.3 µM (inactive) and the EC50 (HEK293 [20]) was 12.4 µM (inactive).

With `CCOC(=O)C1=C(C)NC(C)=C(C(=O)OC)C1c1cccc(Cl)c1Cl` (stereo not drawn) [FELODIPINE] the AC50 [21] was 20 µM (inconclusive).
